According to US9394555B2, “Compositions comprising a polypeptide having cellulolytic enhancing activity and a dioxy compound and uses thereof” (priority 2010, dated 2016):

Assays:
[1] = target: T1, T. aurantiacus GH61A polypeptide (Thermoascus aurantiacus, UniProt G3XAP7, N13Y); test: Microcrystalline cellulose conversion assay III (Examples 12, 13), T. reesei Cel7B endoglucanase I + A. oryzae CEL3A beta-glucosidase, with and without EDTA; assay type: biochemical; settings: 72 hours, 50° C.
Method: A 5% microcrystalline cellulose slurry was prepared by addition of 2.5 g of AVICEL® PH101 to a graduated 50 ml screw-cap conical tube followed by approximately 40 ml of deionized water. Each conical tube was then mixed thoroughly by shaking/vortexing, and adjusted to 50 ml total with deionized water and mixed again. Contents of the tube were then quickly transferred to a 100 ml beaker and stirred rapidly with a magnetic stirrer. Five hundred μl aliquots of the 5% AVICEL® slurry were pipetted into wells of a 2.0 ml 96-deepwell plate (Axygen, Union City, Calif., USA) using a 1000 μl micropipette with a wide aperture tip (end of tip cut off about 2 mm from the base). Two hundred μl of deionized water and 100 μl of 10 mM MnSO4-500 mM sodium acetate pH 5 were then added to each well. One hundred μl of either deionized water, a 1% gallic acid solution dissolved in water, or a 1% gallic acid solution containing 50 mM EDTA was added to each well. Enzyme mixtures were prepared and then added simultaneously to all wells in a volume of 100 μl, for a total of 1 ml in each reaction. […] All experiments reported were performed in triplicate.
(§1) Primary analysis of the hydrolysis reactions was performed using an AGILENT® 1100 HPLC with CHEMSTATION® software equipped with an AMINEX™ HPX-87H column. After approximately 4 days, the deep-well plate was removed from the incubator and chilled overnight to 4° C. The plate was then mixed well by inversion and briefly centrifuged 52×g in a SORVALL® RT7 centrifuge for 10 seconds. Samples were then mixed by pipetting, and 200 μl from each well were transferred to a MULTISCREEN® HV centrifuge filter plate assembly. The centrifuge filter plate assembly was centrifuged at 2000 rpm in a SORVALL® RT7 centrifuge for 20 minutes. […] Sugars were detected using a refractive index detector with quantification by integration compared to purified sugar standards.
All HPLC data processing was performed using MICROSOFT EXCEL™ software. […] In this assay only glucose was measured since beta-glucosidase was at high levels in all samples but the controls. The degree of cellulose conversion was calculated using Equation 1. Triplicate data points were averaged and standard deviation was calculated.
The microcrystalline cellulose hydrolysis assay was performed as described in Example 12.
Data were collected and analyzed, as described in Example 12, after 72 hours of incubation at 50° C.

[2] = target: T1, T. aurantiacus GH61A polypeptide; test: Bacterial cellulose conversion assay (Examples 15, 16); assay type: biochemical; settings: 72 hours, 50° C.
Method: Bacterial cellulose was prepared from NATA DE COCO (Huerto International Trading, Lucena City, Philippines) by extensive rinsing of one 500 ml can of cubes with water followed by homogenation for 15 minutes in 0.25 M sodium hydroxide using a WARING BLENDER® (Waring Products, Torrington, Conn., USA). The resulting slurry was pelleted at 40,000×g in a SORVALL® RT7 centrifuge. The supernatant was discarded. The pellet was then resuspended in 0.25 M sodium hydroxide and stirred overnight at 4° C. This procedure was repeated four times. Following the first washing steps, the cellulose was washed six times under similar conditions, substituting water for 0.25 M sodium hydroxide. Following the water washing, the cellulose was again homogenized for 15 minutes in a WARING BLENDER®, and adjusted to a final volume of 250 ml.
A 0.36% bacterial cellulose slurry was prepared as described in Example 14. This 0.36% slurry was thoroughly resuspended by shaking, and quickly transferred to a 100 ml beaker and stirred rapidly with a magnetic stirrer. Seven hundred μl aliquots of the bacterial cellulose slurry were pipetted into wells of a 2.0 ml 96-deepwell plate (Axygen, Union City, Calif.) using a 1000 μl micropipette with a wide aperture tip (end of tip cut off about 2 mm from the base). One hundred μl of 10 mM MnSO4-500 mM sodium acetate pH 5 was then added to each well. One hundred μl of either deionized water, a 1% gallic acid solution dissolved in water, or a 1% gallic acid solution containing 50 mM EDTA were added to each well. Enzyme mixtures were prepared and then added simultaneously to all wells in a volume of 100 μl, for a total of 1 ml in each reaction. […] All experiments reported were performed in triplicate.
as §1
All HPLC data processing was performed using MICROSOFT EXCEL™ software. […] In this assay only glucose was measured since beta-glucosidase was at high levels in all samples but the controls. Percent conversion was determined using Equation 1. Triplicate data points were averaged and standard deviation was calculated.
The bacterial cellulose hydrolysis assay was performed as described in Example 15.
Data was collected and analyzed, as described in Example 15, after 72 hours of incubation at 50° C.

[3] = gallic acid 0.1% w/w + 5 mM EDTA, no enzymes
[4] = gallic acid 0.1% w/w alone, no enzymes

Row | Molecule | conversion of the microcrystalline cellulose ([1]; gallic acid 0.1% w/w + 5 mM EDTA + T. aurantiacus GH61A polypeptide (5 mg/g), no other enzymes) | conversion of the microcrystalline cellulose [1, 3] | conversion of the microcrystalline cellulose [1, 4] | hydrolysis of the bacterial cellulose ([2]; gallic acid 0.1% w/w + 5 mM EDTA + A. oryzae CEL3A beta-glucosidase (50 mg/g), no GH61) | hydrolysis of the bacterial cellulose ([2]; gallic acid 0.1% w/w + 5 mM EDTA + T. aurantiacus GH61A polypeptide (50 mg/g), no beta-glucosidase) | conversion of the bacterial cellulose [2, 3] | hydrolysis of the bacterial cellulose ([2]; gallic acid 0.1% w/w + A. oryzae CEL3A beta-glucosidase (50 mg/g), no GH61) | conversion of the bacterial cellulose [2, 4] | conversion of the microcrystalline cellulose ([1]; T. aurantiacus GH61A polypeptide (5 mg/g) + endoglucanase I + beta-glucosidase (5 mg/g each), no gallic acid) [%] | conversion of microcrystalline cellulose ([1]; T. aurantiacus GH61A polypeptide (5 mg/g) alone) | conversion of the bacterial cellulose ([2]; T. aurantiacus GH61A polypeptide (50 mg/g) + A. oryzae CEL3A beta-glucosidase (50 mg/g), no gallic acid) | conversion of the bacterial cellulose ([2]; T. aurantiacus GH61A polypeptide (50 mg/g) alone) [%]
1 | O=C(O)c1cc(O)c(O)c(O)c1 [gallic acid] | no significant conversion | no significant conversion | no significant conversion | no significant hydrolysis | no significant hydrolysis | no significant conversion | no significant hydrolysis | no significant conversion |  |  |  | 
2 | T. aurantiacus GH61A polypeptide: GH61A polypeptide having cellulolytic enhancing activity (SEQ ID NO: 14), recombinantly produced in Aspergillus oryzae JaL250 (protein, listed as Thermoascus aurantiacus) MSFSKIIATAGVLASASLVAGHGFVQNIVIDGKYYGGYLVNQYPYMSNPPEVIAWSTTATDLGFVDGTGYQTPDIICHRGAKPGALTAPVSPGGTVELQWTPWPDSHHGPVINYLAPCNGDCSTVDKTQLEFFKIAESGLINDDNPPGIWASDNLIAANNSWTVTIPTTIAPGNYVLRHEIIALHSAQNQDGAQNYPQCINLQVTGGGSDNPAGTLGTALYHDTDPGILINIYQKLSSYIIPGPPLYTG |  |  |  |  |  |  |  |  | 4.0±0.2 | no significant conversion | no significant conversion | 1.5±1.4
